Results taken from patent US7470663B2, “Mixtures of insulin drug-oligomer conjugates comprising polyalkylene glycol, uses thereof, and methods of making same” (Biocon Limited, priority 2001, dated 2008).

Test system: normal fasted beagle dogs
Test: Activity and inter-subject variability: glucose lowering after oral liquid dosage formulation
Type: in vivo
Conditions: fasted beagles, 0.25 mg/kg oral liquid; compared with polydispersed PEG7AVG-hexyl-insulin, monoconjugate (FIG. 21)
Protocol: The inter-subject variability may be measured by various methods as will be understood by those skilled in the art. The inter-subject variability is preferably calculated as follows. The area under a dose response curve (AUC) (i.e., the area between the dose-response curve and a baseline value) is determined for each subject. The average AUC for all subjects is determined by summing the AUCs of each subject and dividing the sum by the number of subjects. The absolute value of the difference between the subject's AUC and the average AUC is then determined for each subject. The absolute values of the differences obtained are then summed to give a value that represents the inter-subject variability. Lower values represent lower inter-subject variabilities and higher values represent higher inter-subject variabilities.
An effective animal model for evaluating formulations uses normal fasted beagle dogs. These dogs are given 0.25 mg/kg of insulin conjugates to evaluate the efficacy of various formulations.
The protocol for dog experiments calls for a blood glucose measurement at time zero just before a drug is administered. The oral liquid dosage formulation is then squirted into the back of the dog's mouth. In each case, the dogs received 0.25 mg/kg of this solution. Blood is drawn at 15, 30, 60 and 120 minutes and glucose levels are measured and graphed. The lower the glucose levels, the better the activity of the insulin conjugate.

PEG10-hexyl-insulin, monoconjugate: non-polydispersed mixture of mPEG10-hexyl-insulin, monoconjugates
activity (glucose lowering): higher activity
inter-subject variability: less inter-subject variability

PEG7-hexyl-insulin, monoconjugate: human insulin monoconjugated at the B29 position with the activated mPEG7-hexyl oligomer of Example 18; non-polydispersed mixture
activity (glucose lowering): higher activity
inter-subject variability: less inter-subject variability
